Laboratory results: patent publication US20260165974A1, “Moisture-proof L-a-glycerylphosphorylcholine” (NANJING NUTRABUILDING BIO-TECH CO., LTD., priority 2023, published 2026)

What was measured:
Type in all cases: physicochemical
[1] = Fluidity and repose angle before and after open storage at 25° C./75% RH for 0~3 h
Procedure: (§1) Study method: 5 g of sample was weighed into a weighing dish (60*30 mm), and placed in an open position at 25° C./75% RH to observe the moisture-proof effect for 0˜3 h.

[2] = Score of fluidity, adhesiveness and deliquescence at 25° C./75% RH
Procedure: as §1
(§2) See Table 3-1 for the scoring standards of some examples. See Table 3-2 for the score results of fluidity, adhesiveness and deliquescence of moisture-proof L-α-glycerylphosphorylcholine.

[3] = Passing rate of 20-mesh sieve at 25° C./75% RH
Procedure: as §1, §2

[4] = Hygroscopicity: moisture absorption weight gain in artificial climate box; conditions: temperature 25° C., relative humidity 75%
Procedure: Specific test method: A dry glass weighing bottle with plug (outer diameter 50 mm, height 15 mm) was placed in an artificial climate box (temperature 25° C., relative humidity 75%) one day before the test, and was accurately weighed (m1). An appropriate amount of test sample was spread in the weighing bottle (thickness of test sample is generally about 1 mm), and it was accurately weighed (m2). The weighing bottle was opened and placed with the bottle cap under the above-mentioned constant temperature and humidity conditions. The weighing bottle was taken out at 5 min, 10 min, 20 min, 30 min, 60 min, 120 min and 180 min respectively, and accurately weighed (m3). The weight gain percentage was calculated according to the calculation formula: weight gain percentage=100%× (m3−m2)/(m2−m1).

[5] = after open placing at 25° C./75% RH, 3 h
[6] = before placing at 25° C./75% RH

C[N+](C)(C)CCOP(=O)([O-])OC[C@H](O)CO [Raw material, L-α-glycerylphosphorylcholine]
Appearance and fluidity, After [1, 5]: All deliquescent and
Repose angle, After [1, 5]: unmeasurable
Appearance and fluidity, Before [1, 6]: Crystalloid/particle, good
Repose angle, Before [1, 6]: 41°
score of fluidity, adhesiveness and deliquescence ([2]; 5 min): 9
score of fluidity, adhesiveness and deliquescence ([2]; 10 min): 0
score of fluidity, adhesiveness and deliquescence ([2]; 20 min): 0
score of fluidity, adhesiveness and deliquescence ([2]; 30 min): 0
score of fluidity, adhesiveness and deliquescence ([2]; 60 min): 0
score of fluidity, adhesiveness and deliquescence ([2]; 120 min): 0
score of fluidity, adhesiveness and deliquescence ([2]; 180 min): 0
passing rate of 20-mesh sieve ([3]; 5 min): 97%
passing rate of 20-mesh sieve ([3]; 10 min): 35%
passing rate of 20-mesh sieve ([3]; 20 min): 24%
passing rate of 20-mesh sieve ([3]; 30 min): 2%
passing rate of 20-mesh sieve ([3]; 60 min): 0%
passing rate of 20-mesh sieve ([3]; 120 min): 0%
passing rate of 20-mesh sieve ([3]; 180 min): 0%

C[N+](C)(C)CCOP(=O)([O-])OC[C@H](O)CO [Raw material 2, L-α-glycerylphosphorylcholine]
weight gain percentage ([4]; 5 min): 3.2%
weight gain percentage ([4]; 10 min): 4.1%
weight gain percentage ([4]; 20 min): 7.2%
weight gain percentage ([4]; 30 min): 9.4%
weight gain percentage ([4]; 60 min): 12.6%
weight gain percentage ([4]; 120 min): 14.4%
weight gain percentage ([4]; 180 min): 18.7%

C[N+](C)(C)CCOP(=O)([O-])OC[C@H](O)CO [Raw material 1, L-α-glycerylphosphorylcholine]
weight gain percentage ([4]; 5 min): 3.0%
weight gain percentage ([4]; 10 min): 4.2%
weight gain percentage ([4]; 20 min): 7.4%
weight gain percentage ([4]; 30 min): 9.5%
weight gain percentage ([4]; 60 min): 12.3%
weight gain percentage ([4]; 120 min): 14.6%
weight gain percentage ([4]; 180 min): 18.5%
